Data on 25 compounds can be found in patent US10385097B2, “Ether compounds for treatment of medical disorders” (Achillion Pharmaceuticals, Inc., priority 2015, dated 2019).

The target of this assay is T1, Human Factor D (Homo sapiens, UniProt P00746).
T1 construct: purified from human serum; purchased Complement Technology, Inc; host or cells: human serum (natural protein, not recombinant)
The assay can be described thus: Human Factor D Assay. It is filed as biochemical. Here is the method:
Example 8. Human Factor D Assay
Human Factor D (purified from human serum, Complement Technology, Inc.) at 80 nM final concentration is incubated with test compound at various concentrations for 5 minutes at room temperature in 50 mM Tris, 1M NaCl, pH 7.5. A synthetic substrate Z-L-Lys-SBzl and DTNB (Ellman's reagent) are added to final concentrations of 100 μM each. Absorbance at 405 nm (A405) is recorded at 30 second intervals for 30 minutes using a microplate spectrophotometer. IC50 values are calculated by nonlinear regression of complement Factor D reaction rates as a function of test compound concentration.

[1] abbreviates: Table 1, Human Factor D 80 nM, substrate Z-L-Lys-SBzl, read-out: IC50.

Broadly, the IC50 is the concentration at which inhibition is half-maximal.

Read-outs that look alike come from different tables or passages of the source. Some results are limits rather than exact numbers.

T1 sequence (P00746 26-253): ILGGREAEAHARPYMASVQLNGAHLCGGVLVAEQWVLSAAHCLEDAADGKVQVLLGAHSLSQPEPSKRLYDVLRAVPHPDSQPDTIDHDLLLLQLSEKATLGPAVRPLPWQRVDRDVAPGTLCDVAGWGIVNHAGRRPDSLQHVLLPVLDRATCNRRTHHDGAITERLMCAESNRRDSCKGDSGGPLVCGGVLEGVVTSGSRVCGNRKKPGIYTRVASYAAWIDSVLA

Take `CC(=O)c1cn(CC(=O)N2C[C@H](F)C[C@H]2C(=O)Nc2cccc(Br)n2)c2ccc(OCC[S+]([O-])CC3(C)COC3)cc12` (stereo partly shown) [Cmp 4]: where the note is “Table 3, Human Factor D 80 nM, substrate Z-L-Lys-SBzl, read-out: (IC50 (Stars))”, the IC50 is under 1000 nM. Take `CC(=O)c1cn(CC(=O)N2C[C@H](F)C[C@H]2C(=O)Nc2cccc(OC(F)(F)F)c2F)c2cc(OCC3CC3)ccc12` [Cmp 4]: the IC50 under setting [1] was under 1000 nM. Take `CC(=O)c1cn(CC(=O)N2C[C@H](F)C[C@H]2C(=O)NCc2cccc(Cl)c2F)c2cc(OCCC3CC3)ccc12` [Cmp 5]: the concentration for half-maximal inhibition (IC50) was under 1000 nM.

Consider `CC(=O)c1cn(CC(=O)N2C[C@H](F)C[C@H]2C(=O)Nc2cccc(Br)n2)c2ccc(OCCSCC3(C)COC3)cc12` [Cmp 5], for which the IC50 is under 1000 nM.

Turning to `CC(=O)c1cn(CC(=O)N2C[C@H](F)C[C@H]2C(=O)NCc2cccc(Cl)c2F)c2cc(OCC3CC3)ccc12` [Compound 1, (2S,4R)-1-(2-(3-acetyl-6-(cyclopropylmethoxy)-1H-indol-1-yl)acetyl)-N-(3-chloro-2-fluorobenzyl)-4-fluoropyrrolidine-2-carboxamide], the IC50 under setting [1] was under 1000 nM. With `CC(=O)c1cn(CC(=O)N2C[C@H](F)C[C@H]2C(=O)NCc2cccc(Cl)c2F)c2cc(OS(=O)(=O)C(F)(F)F)ccc12` [Compound 2, 3-acetyl-1-(2-((2S,4R)-2-(3-chloro-2-fluorobenzylcarbamoyl)-4-fluoropyrrolidin-1-yl)-2-oxoethyl)-1H-indol-6-yl trifluoromethanesulfonate], the half-maximal inhibitory concentration (IC50) under setting [1] is under 1000 nM. For the compound `CC(=O)c1cn(CC(=O)N2[C@@H]3C[C@@H]3C[C@H]2C(=O)NCc2cccc(Cl)c2F)c2cc(OCC3CC3)ccc12` [Compound 3, (1R,3S,5R)-2-(2-(3-acetyl-6-(cyclopropylmethoxy)-1H-indol-1-yl)acetyl)-N-(3-chloro-2-fluorobenzyl)-2-azabicyclo[3.1.0]hexane-3-carboxamide], under setting [1], the half-inhibitory concentration (IC50) is under 1000 nM. For the compound `CCOP(=O)(COc1ccc2c(C(C)=O)cn(CC(=O)N3C[C@H](F)C[C@H]3C(=O)NCc3cccc(Cl)c3F)c2c1)OCC` [Compound 7, Diethyl(((3-acetyl-1-(2-((2S,4R)-2-((3-chloro-2-fluorobenzyl)carbamoyl)-4-fluoropyrrolidin-1-yl)-2-oxoethyl)-1H-indol-6-yl)oxy)methyl)phosphonate], the IC50 under setting [1] was under 1000 nM. For `CC(=O)c1cn(CC(=O)N2C[C@H](F)C[C@H]2C(=O)NCc2cccc(Cl)c2F)c2cc(OCP(=O)(O)O)ccc12` [Compound 8, (((3-Acetyl-1-(2-((2S,4R)-2-((3-chloro-2-fluorobenzyl)carbamoyl)-4-fluoropyrrolidin-1-yl)-2-oxoethyl)-1H-indol-6-yl)oxy)methyl)phosphonic acid], the half-maximal inhibitory concentration (IC50) under setting [1] is under 1000 nM.

As to `CC(=O)c1cn(CC(=O)N2C[C@H](F)C[C@H]2C(=O)NCc2cccc(Cl)c2F)c2ccc(OS(=O)(=O)C(F)(F)F)cc12` [Compound 9, 3-acetyl-1-(2-((2S,4R)-2-(3-chloro-2-fluorobenzylcarbamoyl)-4-fluoropyrrolidin-1-yl)-2-oxoethyl)-1H-indol-5-yl trifluoromethanesulfonate], the IC50 under setting [1] is under 1000 nM. Turning to `CCOP(=O)(COc1ccc2c(c1)c(C(C)=O)cn2CC(=O)N1C[C@H](F)C[C@H]1C(=O)NCc1cccc(Cl)c1F)OCC` [Compound 10, Diethyl(((3-acetyl-1-(2-((2S,4R)-2-((3-chloro-2-fluorobenzyl)carbamoyl)-4-fluoropyrrolidin-1-yl)-2-oxoethyl)-1H-indol-5-yl)oxy)methyl)phosphonate], the 50% inhibitory concentration (IC50) under setting [1] is under 1000 nM.

For the compound `CC(=O)c1cn(CC(=O)N2C[C@H](F)C[C@H]2C(=O)NCc2cccc(Cl)c2F)c2ccc(OCP(=O)(O)O)cc12` [Compound 11, (((3-acetyl-1-(2-((2S,4R)-2-((3-chloro-2-fluorobenzyl)carbamoyl)-4-fluoropyrrolidin-1-yl)-2-oxoethyl)-1H-indol-5-yl)oxy)methyl)phosphonic acid], under setting [1], the IC50 is under 1000 nM. As to `CC(=O)c1cn(CC(=O)N2C[C@H](F)C[C@H]2C(=O)NCc2cccc(Cl)c2F)c2cc(OCP(=O)(OCOC(=O)OC(C)C)OCOC(=O)OC(C)C)ccc12` [Compound 12, (((3-acetyl-1-(2-((2S,4R)-2-(3-chloro-2-fluorobenzylcarbamoyl)-4-fluoropyrrolidin-1-yl)-2-oxoethyl)-1H-indol-6-yloxy)methyl)phosphoryl)bis(oxy)bis(methylene) isopropyl dicarbonate], under setting [1], the IC50 was under 1000 nM. Take `CC(=O)c1cn(CC(=O)N2C[C@H](F)C[C@H]2C(=O)NCc2cccc(Cl)c2F)c2cc(OCP(=O)(O)OCOC(=O)OC(C)C)ccc12` [Compound 13, (((((3-Acetyl-1-(2-((2S,4R)-2-((3-chloro-2-fluorobenzyl)carbamoyl)-4-fluoropyrrolidin-1-yl)-2-oxoethyl)-1H-indol-6-yl)oxy)methyl)(hydroxy)phosphoryl)oxy)methyl isopropyl carbonate]: the IC50 was under 1000 nM.

For the compound `CCOP(=O)(CC)COc1ccc2c(C(C)=O)cn(CC(=O)N3C[C@H](F)C[C@H]3C(=O)NCc3cccc(Cl)c3F)c2c1` (stereo partly drawn) [Compound 14, Ethyl (((3-acetyl-1-(2-((2S,4R)-2-((3-chloro-2-fluorobenzyl)carbamoyl)-4-fluoropyrrolidin-1-yl)-2-oxoethyl)-1H-indol-6-yl)oxy)methyl)(ethyl)phosphinate], the 50% inhibitory concentration (IC50) under setting [1] is under 1000 nM. With `CC(=O)c1cn(CC(=O)N2C[C@H](F)C[C@H]2C(=O)NCc2cccc(Cl)c2F)c2cc(OCS(=O)(=O)NC(C)(C)C)ccc12` [Compound 15, (2S,4R)-1-(2-(3-Acetyl-6-((N-(tert-butyl)sulfamoyl)methoxy)-1H-indol-1-yl)acetyl)-N-(3-chloro-2-fluorobenzyl)-4-fluoropyrrolidine-2-carboxamide], the IC50 was under 1000 nM. Consider `CCP(=O)(O)COc1ccc2c(C(C)=O)cn(CC(=O)N3C[C@H](F)C[C@H]3C(=O)NCc3cccc(Cl)c3F)c2c1` [Compound 16, (((3-Acetyl-1-(2-((2S,4R)-2-((3-chloro-2-fluorobenzyl)carbamoyl)-4-fluoropyrrolidin-1-yl)-2-oxoethyl)-1H-indol-6-yl)oxy)methyl)(ethyl)phosphinic Acid], for which the 50% inhibitory concentration (IC50) was under 1000 nM. On to `CC(=O)c1cn(CC(=O)N2C[C@H](F)C[C@H]2C(=O)NCc2cccc(Cl)c2F)c2cc(OCS(N)(=O)=O)ccc12` [Compound 17, (2S,4R)-1-(2-(3-acetyl-6-(sulfamoylmethoxy)-1H-indol-1-yl)acetyl)-N-(3-chloro-2-fluorobenzyl)-4-fluoropyrrolidine-2-carboxamide], for which the IC50 under setting [1] is under 1000 nM. For `CCOP(=O)(COc1ccc2c(C(C)=O)cn(CC(=O)N3C[C@H](F)C[C@H]3C(=O)N[C@H](C)c3cccc(Cl)c3F)c2c1)OCC` [Compound 18, diethyl (3-acetyl-1-(2-((2S,4R)-2-((R)-1-(3-chloro-2-fluorophenyl)ethylcarbamoyl)-4-fluoropyrrolidin-1-yl)-2-oxoethyl)-1H-indol-6-yloxy)methylphosphonate], the IC50 under setting [1] was under 1000 nM. In the case of `CC(=O)c1cn(CC(=O)N2C[C@H](F)C[C@H]2C(=O)N[C@H](C)c2cccc(Cl)c2F)c2cc(OCP(=O)(O)O)ccc12` [Compound 19, (3-acetyl-1-(2-((2S,4R)-2-((R)-1-(3-chloro-2-fluorophenyl)ethylcarbamoyl)-4-fluoropyrrolidin-1-yl)-2-oxoethyl)-1H-indol-6-yloxy)methylphosphonic acid], the 50% inhibitory concentration (IC50) under setting [1] is under 1000 nM.

For the compound `CCCCCCCCCCCCCCCCOCCCOP(=O)(O)COc1ccc2c(C(C)=O)cn(CC(=O)N3C[C@H](F)C[C@H]3C(=O)NCc3cccc(Cl)c3F)c2c1` [Compound 20, 3-(hexadecyloxy)propyl hydrogen (3-acetyl-1-(2-((2S,4R)-2-(3-chloro-2-fluorobenzylcarbamoyl)-4-fluoropyrrolidin-1-yl)-2-oxoethyl)-1H-indol-6-yloxy)methylphosphonate], the IC50 under setting [1] is under 1000 nM. `CC(=O)c1cn(CC(=O)N2C[C@H](F)C[C@H]2C(=O)NCc2cccc(Cl)c2F)c2cc(OCP(=O)(OCOC(=O)C(C)(C)C)OCOC(=O)C(C)(C)C)ccc12` [Compound 21, (((((3-Acetyl-1-(2-((2S,4R)-2-((3-chloro-2-fluorobenzyl)carbamoyl)-4-fluoropyrrolidin-1-yl)-2-oxoethyl)-1H-indol-6-yl)oxy)methyl)phosphoryl)bis(oxy))bis(methylene) bis(2,2-dimethylpropanoate)]: the IC50 is under 1000 nM. On to `CC(=O)c1cn(CC(=O)N2C[C@H](F)C[C@H]2CNS(=O)(=O)c2cccc(Cl)c2F)c2cc(OCP(=O)(O)O)ccc12` [Compound 22, (3-acetyl-1-(2-((2S,4R)-2-((3-chloro-2-fluorophenylsulfonamido)methyl)-4-fluoropyrrolidin-1-yl)-2-oxoethyl)-1H-indol-6-yloxy)methylphosphonic acid], for which the IC50 under setting [1] was under 1000 nM. On the same count and under the same terms, the result for `CCC(=O)OC(OP(=O)(COc1ccc2c(C(C)=O)cn(CC(=O)N3C[C@H](F)C[C@H]3C(=O)NCc3cccc(Cl)c3F)c2c1)OC(OC(=O)CC)C(C)C)C(C)C` (stereo partly drawn) [Compound 23, 1,1′-(((3-acetyl-1-(2-((2S,4R)-2-(3-chloro-2-fluorobenzylcarbamoyl)-4-fluoropyrrolidin-1-yl)-2-oxoethyl)-1H-indol-6-yloxy)methyl)phosphoryl)bis(oxy)bis(2-methylpropane-1,1-diyl) dipropionate] reads under 1000 nM.

On to `CC(=O)c1cn(CC(=O)N2C[C@H](F)C[C@H]2C(=O)NCc2cccc(Cl)c2F)c2cc(OCP(=O)(N[C@@H](C)C(=O)OC(C)C)N[C@@H](C)C(=O)OC(C)C)ccc12` [Compound 24, (2S,2′S)-isopropyl-2,2′-(((3-acetyl-1-(2-((2S,4R)-2-(3-chloro-2-fluorobenzylcarbamoyl)-4-fluoropyrrolidin-1-yl)-2-oxoethyl)-1H-indol-6-yloxy)methyl)phosphoryl)bis(azanediyl) dipropanoate], for which the concentration for half-maximal inhibition (IC50) was under 1000 nM.
